Measurements taken from patent US20210008177A1 (priority 2019, published 2021).
“Also recorded” adds a separate entry of the source. Where two headings read alike, the source gives them in different places.

How the values were obtained:
SD rats = details: rat, in vivo
Description: Writhing test was applied to the rats, which is a chemical method used to induce pain of the peripheral origin by injection of irritant principles like acetic acid in rats. Analgesic effect of the test compound is inferred from the decrease in the frequency of writhe.
The aforementioned four groups of rats were injected with sterile saline (NaCl 0.9% 1 ml), morphine (3 mg/kg), cobrotoxin (50 ug/kg), and cobrotoxin (25 ug/kg)+morphine (1.5 mg/kg) respectively.
Following Step1, the aforementioned four groups SD rats were injected with 1.5% acetic acid solution (1 ml/rat) again 150 and 210 minutes after the initial injection of 4 different drugs respectively.

NOS = NOS activity in lumbar spinal cord tissue of mice after tolerance and hyperalgesia tests; details: lumbar spinal cord homogenate of mice after 7 days of injections, cobrotoxin of sequence ID NO.1, SD in own column
Kunming mice [1] = details: mouse, in vivo
Excerpt: To evaluate the therapeutic effects elapidea neurotoxins, one of the reliable morphine induced hyperalgesia/tolerance model in mice (Elhabazi, K et al) was created, and effects of the representative EXAMPLE compounds were investigated on the model.
100 Kunming mice were subjected to tail pressure tests for 4 days to measure the mechanical pain threshold and the average pain threshold will be set as the baseline pain threshold. • i. Put the mouse gently into the restraint and put its tail under the conical tip of the pain test apparatus. Press the pedal switch, and increase the pressure on the proximal end of the tail evenly until signs of the first pain response (struggle, squeaking) occurs. Record pain-inducing pressure when pain response occurs (units: g) as the value of pain threshold. The pressure was released upon reaching 700 g with no indication of a response to avoid tissue injury. Measurements were also conducted at the middle and distal ends of the tail of the same mouse with a minimum of 30 seconds time intervals between each measurement. • ii. Put the tested mice in a cage and test the next one until every mouse in the group is tested. […] The pain threshold of the mice measured by the tail pressure test ranged from 180 g to 220 g. […]

IL-6 = IL-6 in lumbar spinal cord tissue of mice after tolerance and hyperalgesia tests (ELISA); details: lumbar spinal cord homogenate of mice after 7 days of injections, cobrotoxin of sequence ID NO.1, SD in own column
Kunming mice [2] = assay type: in vivo; details: for average pain threshold before injection, difference between physiological saline, cobrotoxin and cobrotoxin+morphine groups: day 5 through day 11
Excerpt: 100 Kunming mice were subjected to tail pressure tests for 4 days to measure the mechanical pain threshold and the average pain threshold will be set as the baseline pain threshold. • i. Put the mouse gently into the restraint and put its tail under the conical tip of the pain test apparatus. Press the pedal switch, and increase the pressure on the proximal end of the tail evenly until signs of the first pain response (struggle, squeaking) occurs. Record pain-inducing pressure when pain response occurs (units: g) as the value of pain threshold. The pressure was released upon reaching 700 g with no indication of a response to avoid tissue injury. Measurements were also conducted at the middle and distal ends of the tail of the same mouse with a minimum of 30 seconds time intervals between each measurement. • ii. Put the tested mice in a cage and test the next one until every mouse in the group is tested. The average of the three measurements (i.e., the proximal, mid and distal ends of each mouse tail) was used as the pain threshold (g) of each mouse when all mice were subjected to a tail pressure test. • iii. In the following 3 days, all mice underwent repeated measurements of tail pressure pain threshold. • iv. […] The mice were then randomly divided into four groups: namely ‘physiological saline group’, ‘morphine group’, ‘cobrotoxin group’ and ‘cobrotoxin+morphine group’. Each group comprised of 20 mice, which is used for the hyperalgesia and tolerance test of the corresponding drugs in the group's name. Any surplus mice were excluded. • v. Lastly, each group of 20 mice was divided randomly again into two groups, with each group comprising 10 mice, as cobrotoxin of amino acid sequence ID NO.1, and cobrotoxin of amino acid sequence ID NO. 2 will be used for parallel testing
After 4 days of measurement of the mice's baseline pain threshold described in step 1, from the fifth day to the eleventh day, the measurement of pain threshold was performed before the injection. […]

NO = NO content in lumbar spinal cord tissue of mice after tolerance and hyperalgesia tests; details: lumbar spinal cord homogenate of mice after 7 days of injections, cobrotoxin of sequence ID NO.1, SD in own column
IL-1β = IL-1β in lumbar spinal cord tissue of mice after tolerance and hyperalgesia tests (ELISA); details: lumbar spinal cord homogenate of mice after 7 days of injections, cobrotoxin of sequence ID NO.1, SD in own column

CN1CC[C@]23c4c5ccc(O)c4O[C@H]2[C@@H](O)C=C[C@H]3[C@H]1C5 [morphine]
analgesic effect in writhing test (SD rats): lower analgesic effect; also recorded: almost no signs of any analgesic effect
number of writhing, difference within the group between 60, 150 and 210 minutes (SD rats): significant statistical difference
NOS (NOS): significantly higher
NOS (NOS; listed as Morphine): 7.56 U/mg protein
average pain threshold one hour after injection, difference within the group between day five, eight and eleven (Kunming mice [1]): significant statistical difference
mean pain threshold one hour after injection, course within the group (tolerance) (Kunming mice [1]): significantly decreased from day 5 to day 11
IL-6 (IL-6): significantly higher
IL-6 (IL-6; listed as Morphine): 19.40 pg/mg protein
mean pain threshold before injection (hyperalgesia) (Kunming mice [2]; mouse, in vivo): significantly lower
NO (NO): significantly higher
NO (NO; listed as Morphine): 1.61 μmol/g protein
IL-1β (IL-1β): significantly higher
IL-1β (IL-1β; listed as Morphine): 16.80 pg/mg protein

B1: Cobrotoxin of amino acid sequence ID No.1 (protein)
chain: LECHNQQSSQTPTTTGCSGGETNCYKKRWRDHRGYRTERGCGCPSVKNGIEINCCTTDRCNN
modifications: Naja atra or Naja kaouthia
average pain threshold before injection, difference between physiological saline, cobrotoxin and cobrotoxin+morphine groups (Kunming mice [2]; FIG. 3, cobrotoxin of sequence ID No.1): No significant statistical differences

B2: Cobrotoxin of amino acid sequence ID No.2: mktllltllv vtivcldlgy tlechnqqss qtptttgcsg getncykkrw rdhrgyrter gcgcpsvkng ieinccttdr cnn (protein)
chain: MKTLLLTLLVVTIVCLDLGYTLECHNQQSSQTPTTTGCSGGETNCYKKRWRDHRGYRTERGCGCPSVKNGIEINCCTTDRCNN
modifications: Naja atra or Naja kaouthia
notes: mktllltllv vtivcldlgy tlechnqqss qtptttgcsg getncykkrw rdhrgyrter gcgcpsvkng ieinccttdr cnn
average pain threshold before injection, difference between physiological saline, cobrotoxin and cobrotoxin+morphine groups (Kunming mice [2]; FIG. 4, cobrotoxin of sequence ID No.2): No significant statistical differences
